# Laboratory results taken from patent publication US9464080B2, “Substituted pyrido[2,3-d]pyrimidines for dry skin and anti-ageing application” (L'OREAL, priority 2012, dated 2016).
# Assays:
# Assay type in all cases: cell-based
# [1] = tested on: Episkin™ reconstructed epidermis; assay: HES morphological observation of treated Episkin reconstructed epidermis; details: systemic treatment over 5 days
# Method: (§1) The reconstructed epidermises, received from the Episkin company at six days of reconstruction, were placed back into culture, when received, in 3.5 ml of differentiation medium (Episkin™ medium) under insert (in emersion) in an incubator for 48 hours (37° C., 5% CO2).
# (§2) The epidermises were subsequently contacted with the test compounds systemically. The Episkin™ differentiation culture medium is replaced by a differentiation medium containing the test compounds with 0.1% of final DMSO vehicle. The epidermises were placed back into culture in the incubator for 48 hours. A new systemic treatment is carried out for a further 72 hours in culture in the incubator.
# (§3) For the treatment on Episkin™, each test compound was prepared at the time of use by being weighed out and dissolved at 10 mM in DMSO, then used to treat 3 samples of reconstructed epidermis. […] The positive controls used were vitamin D3, retinol and calcipotriol (a vitamin D3 analogue).
# (§4) The epidermises were withdrawn (3 epidermises per treatment) for histological analysis and protein extracts (a single reconstructed epidermis is used for the histological study and the protein extract).
# Morphological control of the reconstructed epidermises treated was carried out using HES (Hematoxylin—Eosin—Saffron) staining in accordance with a standard protocol on the histological sections of the samples enclosed in paraffin (toluene bath: thrice 15 minutes; 100° alcohol baths; twice one minute; 95° alcohol baths: one minute; rinsing in water baths; hematoxylin bath: once 2 minutes; rinsing in water baths; brief immersion in a hydrochloric acid bath; rinsing with water; eosin bath: once one minute; rinsing with water; brief immersion in a 100° alcohol bath; saffron bath (5 minutes); brief immersion in a 100° alcohol bath; toluene bath: thrice 2 minutes).
# [2] = tested on: CD44; assay: CD44 immunolabelling of treated Episkin reconstructed epidermis; details: for CD44: Episkin, systemic treatment over 5 days, effect generally rated for the highest concentration used (10 μM)
# Method: as §1, §2
# For the treatment on Episkin™, each test compound was prepared at the time of use by being weighed out and dissolved at 10 mM in DMSO, then used to treat 3 samples of reconstructed epidermis. Furthermore, each compound under test was employed at a final 1 and […] in the culture medium (0.1% final DMSO). The positive controls used were vitamin D3, retinol and calcipotriol (a vitamin D3 analogue).
# as §4
# The samples of epidermis were enclosed in OCT for freezing in liquid nitrogen and then stored at −80° C. The resulting blocks were cut to a thickness of 7 μm using a cryostat, and the slices were dried and stored at −20° C. while awaiting immunolabelling.
# The labels selected for the immunolabelling are as follows: • Ki67 to provide information on any change in cell proliferation in the basal layer, and • CD44 to provide information on any change in the metabolism of the living layers and in the proliferation/differentiation balance.
# [3] = tested on: Ki67; assay: Ki67 immunolabelling of treated Episkin reconstructed epidermis
# Method: as §1, §2, §3, §4
# The samples of epidermis were enclosed in OCT for freezing in liquid nitrogen and then stored at −80° C. […]
# [4] = effect generally rated for the highest concentration used (10 μM)
structure (smiles),measurement,setting,value
CCOC(=O)C1=C(C)Nc2c(c(=O)n(C)c(=O)n2C)C1c1cccc(Oc2ccccc2)c1 (stereo not drawn) [Compound (2)],HES,[1]; [4],0
same,CD44,[2],0
CCOC(=O)C1=C(C)Nc2c(c(=O)n(C)c(=O)n2C)C1CC(C)C (stereo not drawn) [Compound (4)],HES,[1]; [4],0
same,Ki67 labelling,"[3]; Episkin samples treated, FIG. 2",strong increase in Ki67 labelling
same,CD44 immunolabelling,"[2]; Episkin samples treated, FIG. 3",increase in CD44
same,CD44,[2],++ (*)
"CC1=C(/C=C/C(C)=C/C=C/C(C)=C/CO)C(C)(C)CCC1 [Retinol, retinol, reference compound]",HES,[1]; 100 μM,0
same,Ki67,"[3]; Episkin, systemic treatment over 5 days, 100 μM",0
"C=C1CC[C@H](O)C/C1=C/C=C1\CCC[C@]2(C)[C@@H]([C@H](C)CCCC(C)C)CC[C@@H]12 [Vitamin D3, vitamin D3, reference compound]",HES,[1]; [4],0
